From US20150191445A1, “ACYL-HYDRAZONE AND OXADIAZOLE COMPOUNDS, PHARMACEUTICAL COMPOSITIONS CONTAINING THE SAME AND USES THEREOF” (Universidade Federal de Santa Catarina, priority 2011, published 2015)

Tests used:
Assay type in all cases: cell-based, human
[1] = tested on: Jurkat cells; experiment: MTT cytotoxicity assay, Jurkat cell line; conditions: 48 h of treatment, read-out: IC50 T (Jurkat)
Description: All compounds were resuspended in DMSO at stock concentration of 20 mM and stored at −20° C. For cytotoxicity testing, the dilutions from the stock solutions were made in culture medium (RPMI-1640 plus 10% of fetal bovine serum, 100 IU/ml penicillin and 100 µg/mL Streptomycin), immediately before being discharged to the cells.
The REH and Jurkat cell lines were maintained in
RPMI-1640 medium with 10% FBS (fetal bovine serum), 100 IU/mL penicillin, 100 µg/mL streptomycin and incubated at 37° C. and 5% CO2. Cytotoxicity assays were performed according to the method described in the literature (Pieters, R.; et al. In vitro drug sensitivity of cells from children with leukemia using the MTT assay with improved culture conditions. Blood, 1990, 76, 2327-2336; Pieters, R.; et al. Relation of cellular drug resistance to long-term clinical outcome in childhood acute lymphoblastic leukaemia. Lancet, 1991, 338, 399-403 e Kaspers, G. J.; et al. In vitro cellular drug resistance and prognosis in newly diagnosed childhood acute lymphoblastic leukemia. Blood, 1997, 90, 2723). Cells were resuspended at a concentration of 3.75 10^5 cells/mL in culture medium as described. Eighty microliters of this suspension were seeded into plates with 96 round-bottom wells, containing 20 microliters of different concentrations of compound or vehicle alone. Each treatment was done in triplicate. After 48 hours of incubation at 37° C. and 5% CO2, 20 μL of MTT solution was added (5 mg/mL of 1x PBS), followed by further incubation for 4 hours and 30 minutes at 37° C. and 5% CO2. During these 4 hours and 30 minutes, MTT (yellowish) is metabolized to formazan salt (bluish in color) by living cells. After this, 100 μL sodium dodecyl sulphate (SDS) 10%+0.1M of HCl were added to dissolve the formazan crystals. After incubating overnight, absorbance reading at 570 nm was carried out. The percentage of cells surviving the treatment were calculated relative to the number of surviving cells in the medium without addition of the compounds in question (“negative control”).
c) Determination of IC: IC50 is defined as the concentration of a compound at which 50% of maximal inhibition is obtained. After reading the absorbance, survival curves were constructed and the values of IC50 were obtained with the GraphPad Prism software.

[2] = tested on: HL-60 cells; experiment: DNA microarray gene expression and GSEA analysis; conditions: 125 nM, 6 h
Description: The cells were incubated for 12 hours in fresh medium before the experiments. Two million cells from the leukemic cell line HL60, in triplicate, were treated with a 125 nM dose of compound 07 or with dimethylsulfoxide (DMSO) vehicle for 6 h, in DMEM supplemented with 10% fetal bovine serum. At the end of this period, the cells were recovered by brief centrifugation and lysed in a solution of guanidine of the RNAspin Mini RNA Isolation kit (GE).
Total RNA was extracted from cells using the RNAspin Mini RNA Isolation kit (GE) following the manufacturer's instructions. A total of 100 ng of RNA was used to prepare biotinylated complementary RNA probes (Bio-cRNA), by cDNA synthesis followed by amplification by in vitro transcription, using the GeneChip WT cDNA Synthesis and Amplification kit (Affymetrix) according to the recommendations of the manufacturer. […]
the results of the microarray hybridization were read in the Affymetrix Gene Chip Scanner 3000-7G. Data were analyzed in the Bioconductor platform. […] The list of differentially expressed genes were analyzed using the CMap (http://www.broad.mit.edu/cmap/) for identification of possible action mechanisms related to the action of known compounds (Lamb, J., Crawford E. D. The Connectivity Map: Using Gene-Expression Signatures to Connect Small Molecules, Genes and Disease Science 2006, 313, 1929-1935). […]

[3] = tested on: cell cycle regulatory proteins in Jurkat cells; experiment: Western blot of cell cycle regulatory proteins; conditions: 125 nM
Description: The cells were incubated for 12 hours in fresh medium before experiments. Two million cells from the Jurkat line were incubated for 12 h, 18 h, 24 h and 30 h in RPMI-640 medium supplemented with 10% Fetal Bovine Serum (FCS) and 0.2% Penicillin/Streptomycin (PS) with a concentration of 125 nM of compound 07 or DMSO (vehicle).
The cells treated or not with compound 07 were lysed in buffer containing 50 mM Tris pH 7.7, 150 mM NaCl, 5 mM EDTA, 1% Sigma phosphatase inhibitor cocktail I, 1% Sigma phosphatase inhibitor cocktail II, 1% Sigma protease inhibitor cocktail II, 1% Igepal, 0.1% SDS, 0.5% sodium deoxycholate and 1 mM PMSF. After incubation for 30 min on ice and 3 cycles of freezing and thawing, extracts were centrifuged at 10,000 rpm for 20 min at 4° C. to sediment membrane debris. Of the supernatant, we proceeded with protein quantification by Bradford reagent (Biorad). The samples were boiled for 5 min with prior addition of β-mercaptoethanol and 100 μg of protein were subjected to acrylamide:bisacrylamide gel electrophoresis (39:1) 10% with SDS and electrotransferred to 0.45 μm nitrocellulose membrane (Schleicher & Schuell). […]

## COc1cc(C(=O)NN=Cc2cccc3ccccc23)cc(OC)c1OC [Compound 07]
[1]
  IC50: 15.7 nM
[2]
  expression of tubulin and tubulin-specific chaperone gene set (GSEA): drastic reduction of the expression of a set of genes of tubulin and tubulin-specific chaperones
[3]
  expression of CDKs: repression of the expression of CDK4 and to a lesser extent also of CDK6, shorter isoform of CDK2 and larger isoform of CDK9
[3]; after 12 hours of treatment
  phosphorylation of Chk2: possible to detect the phosphorylation of Chk2 in Thr68
